# From the supplement of paper PMC10307832
# Compound: Cc1nc(C(=O)NCC(=O)O)c(O)c2ccc(Oc3ccccc3)cc12 [FG-4592] + NC(=O)Nc1cc(-c2cccc(F)c2)sc1C(=O)N[C@H]1CCCNC1 [AZD7762] (partner 0.2 µM)
# Assay: relative viability (nuclei count vs DMSO), 5 days (fraction); higher = more cells survive
# Conditions: first compound 0.08 µM
# In short: (§1)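 Five library-drug doses in √10 steps were combined with a fixed anchor-drug dose, or a single drug was given alone, by pin tool to lung cancer cell lines in 1536-well plates the day after seeding. Nuclei were stained and counted after 5 days. Relative viability is the nuclei count in treated wells over that in vehicle wells, taken as the median of duplicate plates.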
row,Cell Line,relative viability
1,HCC-44,0.993
2,LU99A,0.37
3,BEN,0.555
4,HCC-78,0.558
5,LCLC-97TM1,0.255
6,A-427,0.757
7,NCI-H441,1.26
8,NCI-H1734,0.63
9,NCI-H460,0.698
10,NCI-H2347,0.72
11,NCI-H1395,0.446
12,201T,0.579
13,NCI-H1915,0.672
14,HCC-827,0.23
15,LXF-289,1.12
16,NCI-H23,0.243

row,Cell Line,relative viability
1,NCI-H647,0.431
2,NCI-H1651,0.474
3,EPLC-272H,0.194
4,NCI-H1792,0.81
5,NCI-H1355,0.907
6,NCI-H3122,0.985
7,NCI-H1437,1.19
8,NCI-H1755,0.408
9,HCC-15,1.29
10,PC-14,0.356
11,EKVX,0.732
12,LC-2-ad,0.912
13,NCI-H1944,0.479
14,NCI-H1975,0.782
15,RERF-LC-KJ,0.913

# Same assay, conditions: first compound 0.253 µM
row,Cell Line,relative viability
1,HCC-44,1.01
2,LU99A,0.387
3,BEN,0.617
4,NCI-H322M,0.518
5,LCLC-97TM1,0.173
6,A-427,0.777
7,NCI-H441,0.852
8,NCI-H1734,0.474
9,NCI-H460,0.583
10,NCI-H2347,0.546
11,NCI-H1395,0.396
12,201T,0.595
13,NCI-H1915,0.652
14,HCC-827,0.173
15,LXF-289,1.01
16,NCI-H23,0.257

row,Cell Line,relative viability
1,NCI-H647,0.429
2,NCI-H1651,0.455
3,EPLC-272H,0.426
4,NCI-H1792,0.637
5,NCI-H1355,0.669
6,NCI-H3122,0.922
7,NCI-H1437,1.08
8,NCI-H1755,0.621
9,HCC-15,1.25
10,NCI-H1793,0.48
11,PC-14,0.341
12,EKVX,0.628
13,LC-2-ad,0.833
14,NCI-H1944,0.675
15,NCI-H1975,0.644
16,RERF-LC-KJ,0.992

# Same assay, conditions: first compound 0.8 µM
row,Cell Line,relative viability
1,HCC-44,1.16
2,BEN,0.476
3,HCC-78,0.534
4,NCI-H322M,0.497
5,LCLC-97TM1,0.274
6,A-427,0.665
7,NCI-H441,1.46
8,NCI-H1734,0.456
9,NCI-H460,0.462
10,NCI-H2347,0.724
11,NCI-H1395,0.413
12,201T,0.453
13,NCI-H1915,0.715
14,HCC-827,0.326
15,LXF-289,1.27
16,NCI-H23,0.206
17,NCI-H647,0.367
18,NCI-H1651,0.433
19,EPLC-272H,0.224
20,NCI-H3122,1.06
21,NCI-H1437,1.17
22,NCI-H1755,0.361
23,HCC-15,1.14
24,PC-14,0.284
25,EKVX,0.758
26,LC-2-ad,0.831
27,NCI-H1944,0.368
28,NCI-H1975,0.684
29,RERF-LC-KJ,0.815

# Same assay, conditions: first compound 2.53 µM
row,Cell Line,relative viability
1,HCC-44,1.06
2,LU99A,0.381
3,BEN,0.666
4,HARA,0.251
5,HCC-78,0.625
6,NCI-H322M,0.629
7,LCLC-97TM1,0.132
8,A-427,0.773
9,NCI-H441,1
10,NCI-H1734,0.547
11,NCI-H460,0.725
12,NCI-H2347,0.85
13,NCI-H1395,0.385
14,201T,0.559
15,NCI-H1915,0.637
16,HCC-827,0.184
17,LXF-289,1.08

row,Cell Line,relative viability
1,NCI-H23,0.285
2,NCI-H647,0.422
3,NCI-H1651,0.442
4,EPLC-272H,0.181
5,NCI-H1792,0.834
6,NCI-H1355,0.809
7,NCI-H3122,1.02
8,NCI-H1437,0.995
9,NCI-H1755,0.491
10,HCC-15,1.18
11,NCI-H1793,0.696
12,PC-14,0.342
13,EKVX,0.665
14,LC-2-ad,0.817
15,NCI-H1944,0.509
16,NCI-H1975,0.712
17,RERF-LC-KJ,0.883

# Same assay, conditions: first compound 8 µM
row,Cell Line,relative viability
1,HCC-44,0.997
2,LU99A,0.346
3,BEN,0.527
4,HARA,0.431
5,HCC-78,0.662
6,NCI-H322M,0.43
7,LCLC-97TM1,0.315
8,A-427,0.717
9,NCI-H441,0.978
10,NCI-H1734,0.427
11,NCI-H460,0.668
12,NCI-H2347,0.744
13,NCI-H1395,0.396
14,201T,0.555
15,NCI-H1915,0.669
16,HCC-827,0.22
17,LXF-289,1.34

row,Cell Line,relative viability
1,NCI-H23,0.164
2,NCI-H647,0.532
3,NCI-H1651,0.455
4,EPLC-272H,0.15
5,NCI-H1792,0.654
6,NCI-H1355,0.723
7,NCI-H3122,0.952
8,NCI-H1437,1.08
9,NCI-H1755,0.446
10,HCC-15,1.25
11,NCI-H1793,0.37
12,PC-14,0.282
13,EKVX,0.747
14,LC-2-ad,0.83
15,NCI-H1944,0.471
16,NCI-H1975,0.709
17,RERF-LC-KJ,0.969

# Compound: Cc1nc(C(=O)NCC(=O)O)c(O)c2ccc(Oc3ccccc3)cc12 [FG-4592] + CS(=O)(=O)N1CCN(Cc2cc3nc(-c4cccc5[nH]ncc45)nc(N4CCOCC4)c3s2)CC1 [Pictilisib] (partner 1 µM)
# Assay: as above
# Conditions: first compound 0.08 µM
# In short: as §1
row,Cell Line,relative viability
1,HCC-44,0.569
2,LU99A,0.311
3,BEN,0.442
4,HARA,0.329
5,HCC-78,0.219
6,NCI-H322M,0.379
7,LCLC-97TM1,0.22
8,A-427,0.674
9,NCI-H441,0.585
10,NCI-H1734,0.417
11,NCI-H460,0.236
12,NCI-H2347,0.0319
13,NCI-H1395,0.747
14,201T,0.642
15,NCI-H1915,0.913
16,HCC-827,1.05
17,LXF-289,0.776

row,Cell Line,relative viability
1,NCI-H23,0.365
2,NCI-H1651,0.541
3,EPLC-272H,0.276
4,NCI-H1792,0.296
5,NCI-H1355,0.389
6,NCI-H3122,0.735
7,NCI-H1437,0.447
8,NCI-H1755,0.303
9,HCC-15,0.65
10,NCI-H1793,0.281
11,PC-14,0.681
12,EKVX,0.395
13,LC-2-ad,0.487
14,NCI-H1944,0.3
15,NCI-H1975,0.284
16,RERF-LC-KJ,0.476

# Same assay, conditions: first compound 0.253 µM
row,Cell Line,relative viability
1,HCC-44,0.609
2,LU99A,0.28
3,BEN,0.485
4,HARA,0.292
5,HCC-78,0.248
6,NCI-H322M,0.481
7,LCLC-97TM1,0.192
8,A-427,0.739
9,NCI-H441,0.524
10,NCI-H1734,0.47
11,NCI-H460,0.367
12,NCI-H2347,0.633
13,NCI-H1395,0.622
14,201T,0.644
15,NCI-H1915,0.915
16,HCC-827,1.04
17,LXF-289,0.696

row,Cell Line,relative viability
1,NCI-H23,0.433
2,NCI-H647,0.395
3,NCI-H1651,0.575
4,EPLC-272H,0.26
5,NCI-H1792,0.248
6,NCI-H1355,0.393
7,NCI-H3122,0.57
8,NCI-H1437,0.437
9,NCI-H1755,0.4
10,HCC-15,0.723
11,NCI-H1793,0.384
12,PC-14,0.752
13,EKVX,0.377
14,LC-2-ad,0.372
15,NCI-H1944,0.336
16,NCI-H1975,0.266
17,RERF-LC-KJ,0.539

# Same assay, conditions: first compound 0.8 µM
row,Cell Line,relative viability
1,HCC-44,0.498
2,LU99A,0.291
3,BEN,0.429
4,HCC-78,0.182
5,NCI-H322M,0.481
6,LCLC-97TM1,0.138
7,A-427,0.503
8,NCI-H441,0.509
9,NCI-H1734,0.405
10,NCI-H460,0.314
11,NCI-H2347,0.434
12,201T,0.584
13,NCI-H1915,0.873
14,HCC-827,1.07
15,LXF-289,0.822
16,NCI-H23,0.486
17,NCI-H1651,0.534
18,EPLC-272H,0.28
19,NCI-H1792,0.279
20,NCI-H3122,0.511
21,NCI-H1437,0.337
22,NCI-H1755,0.306
23,HCC-15,0.738
24,PC-14,0.756
25,EKVX,0.478
26,LC-2-ad,0.456
27,NCI-H1944,0.294
28,NCI-H1975,0.259
29,RERF-LC-KJ,0.552

# Same assay, conditions: first compound 2.53 µM
row,Cell Line,relative viability
1,HCC-44,0.614
2,LU99A,0.316
3,BEN,0.561
4,HARA,0.46
5,HCC-78,0.222
6,NCI-H322M,0.512
7,A-427,0.661
8,NCI-H441,0.483
9,NCI-H1734,0.482
10,NCI-H460,0.466
11,NCI-H2347,0.567
12,NCI-H1395,0.776
13,201T,0.695
14,NCI-H1915,0.93
15,HCC-827,0.875
16,LXF-289,0.708
17,NCI-H23,0.449

row,Cell Line,relative viability
1,NCI-H647,0.452
2,NCI-H1651,0.635
3,EPLC-272H,0.37
4,NCI-H1792,0.246
5,NCI-H1355,0.379
6,NCI-H3122,0.583
7,NCI-H1437,0.37
8,NCI-H1755,0.442
9,HCC-15,0.729
10,NCI-H1793,0.228
11,PC-14,0.624
12,EKVX,0.428
13,LC-2-ad,0.414
14,NCI-H1944,0.356
15,NCI-H1975,0.253
16,RERF-LC-KJ,0.574

# Same assay, conditions: first compound 8 µM
row,Cell Line,relative viability
1,HCC-44,0.602
2,LU99A,0.339
3,BEN,0.459
4,HARA,0.304
5,HCC-78,0.225
6,NCI-H322M,0.583
7,LCLC-97TM1,0.169
8,A-427,0.742
9,NCI-H441,0.464
10,NCI-H1734,0.491
11,NCI-H460,0.381
12,NCI-H2347,0.562
13,NCI-H1395,0.531
14,201T,0.675
15,NCI-H1915,0.95
16,HCC-827,0.834
17,LXF-289,0.769

row,Cell Line,relative viability
1,NCI-H23,0.398
2,NCI-H647,0.53
3,NCI-H1651,0.454
4,EPLC-272H,0.434
5,NCI-H1792,0.318
6,NCI-H1355,0.366
7,NCI-H3122,0.605
8,NCI-H1437,0.269
9,NCI-H1755,0.444
10,HCC-15,0.784
11,NCI-H1793,0.354
12,PC-14,0.73
13,EKVX,0.441
14,LC-2-ad,0.374
15,NCI-H1944,0.363
16,NCI-H1975,0.244
